Like-named read-outs stand apart in the source and are kept apart here.
Experiments:
CYP3A [1] = assay: CYP3A catalytic activity (erythromycin-N-demethylation), possum hepatic microsomes; type: in vitro ADME, possum (Trichosurus vulpecula)
Protocol: (§1) Microsomal preparation was as previously outlined. Individual livers were placed in beakers containing 1.15% KCl. All the procedures were carried out at 0–4 °C. The liver samples were minced and homogenised in buffer A (0.1 M Tris, 0.1 M potassium chloride, 1 mM EDTA, and 20 μM butylated hydroxytoluene, at pH = 7.4) using the Teflon-glass homogeniser (5–6 vertical passes). The samples were centrifuged for 20 min at 10,000× g. The supernatant was then transferred into another set of centrifuge tubes and spun for 60 min at 100,000× g. The pellet was resuspended in Buffer B (0.1 M potassium pyrophosphate, 1 mM EDTA, and 20 μM butylated hydroxytoluene, at pH = 7.4), homogenised and recentrifuged for 60 min at 100,000× g. Finally, the pellet was homogenised in 1–2 mL of Buffer C (10 mM Tris-HCl, 1 mM EDTA, and 4% glycerol (v/v)) and stored at […] until used. The protein concentration of the microsomes was determined using the Bicinchoninic acid (BCA) method.
(§2) CYP3A catalytic activity was determined using the erythromycin-N-demethylation activity assay as described previously. The reaction mixture (final volume of 1 mL and final protein concentration of 1 mg) contained 500 µL of microsomes in 0.1 M phosphate buffer (pH = 7.4), 400 µL of erythromycin buffer (0.45 mM), and 50 µL of the test compound was pre-warmed at 37 °C for 2 min. The reaction was initiated with 50 µL of 2.5 mM […] and incubated at 37 °C for 30 min (optimised incubation time). The reaction was stopped with the addition of 330 µL of 15% zinc sulphate. Tubes were vortexed and left for 5 min (at room temperature) and then 330 µL of saturated barium hydroxide was added. Tubes were further vortexed and left for 5 min (at room temperature). Tubes were then centrifuged at 1800 g for 10 min. To 830 µL of the supernatant, 330 µL of Nash reagent (30% (w/v) ammonium acetate, 0.4% (v/v) acetyl acetone) was added and further incubated at 60 °C for 30 min. The blank tube contained 330 µL of Nash reagent and 830 µL of Milli-Q-water. The tubes were centrifuged again at 1800× g for 10 min and the absorbance was read at 415 nm. Results presented are the mean ± SEM of 3 independent experiments conducted in duplicate.

mice = system: mice; parameters: method as in earlier work; conditions: cited from earlier work
rats = system: rats; parameters: method as in PMID 6068552; conditions: cited from earlier work
dogs = conditions: cited from earlier work
UGT [2] = assay: p-nitrophenol glucuronidation, rat hepatic microsomes; type: in vitro ADME
Protocol: as §1
(§3) The rate of p-nitrophenol glucuronidation was determined as previously reported. In short, the incubation mixture (500 µL in total) contained; 100 µL of 1 mg/mL microsomes, 50 µL of 1 M Tris-HCl (pH = 7.4), 20 µL of 0.25% (v/v) Triton-X 100, 50 µL of 50 mM MgCl2, 130 µL of double distilled water, 50 µL of 5 mM p-nitrophenol, 50 µL of the test compound, and 50 µL of uridine 5′-diphosphoglucuronic acid trisodium salt (UDPGA). The blank tubes had all components except UDPGA and microsomes; instead, 150 µL of 0.1 M phosphate buffer was added to equal the volume as the reaction mixture. The reaction mixture and the blank were incubated at 37 °C for 2 min. Then, 50 µL of 30 mM UDPGA was added to initiate the reaction which proceeded at 37 °C for 30 min (optimised incubation time). The reaction was stopped using 1 mL of 5% trichloroacetic acid (TCA). The tubes were centrifuged at 1800 g for 10 min and then 1 mL of supernatant was added to 250 µL of 2 M sodium hydroxide (NaOH). The absorbance was read at 405 nm. The sample reading was subtracted from the blank absorbance and divided by the extinction coefficient of p-nitrophenol ([…]) and the light path of the spectrophotometer (1 cm). The glucuronidation activities are expressed in µmol/mg/min and are the mean ± SEM of 3 independent experiments conducted in duplicate.

humans = system: humans; parameters: method as in PMID 7651249; conditions: cited from earlier work
possums = system: possums; parameters: method as in doi:10.1023/A:1020863216892; conditions: cited from earlier work
UGT [3] = assay: p-nitrophenol glucuronidation, mouse hepatic microsomes; type: in vitro ADME
Protocol: as §1, §3

[4] = system: CYP enzymes (preferably CYP3A); parameters: method as in PMID 11465406; conditions: possums; cited from earlier work
CYP3A [5] = assay: CYP3A catalytic activity (erythromycin-N-demethylation), rat hepatic microsomes; type: in vitro ADME
Protocol: as §1, §2

CYP3A [6] = assay: CYP3A catalytic activity (erythromycin-N-demethylation), mouse hepatic microsomes; type: in vitro ADME
Protocol: as §1, §2

UGT [7] = assay: p-nitrophenol glucuronidation, possum hepatic microsomes; type: in vitro ADME, possum (Trichosurus vulpecula)
Protocol: as §1, §3

CYP3A [8] = system: CYP3A; parameters: method as in PMID 12593759; conditions: possums, ketoconazole 5 µM, cited from earlier work
CYP3A [9] = system: CYP3A; parameters: method as in PMID 12593759; conditions: rats, ketoconazole; cited from earlier work
[10] = liver microsomes, pH 7.4, probe erythromycin, 12.5 µM, read-out: CYP3A catalytic activity, % of Control
[11] = liver microsomes, pH 7.4, probe erythromycin, 25 µM, read-out: CYP3A catalytic activity, % of Control

## CC12CCC(CC1)C(C)(C)O2 [Cineole, 1,3,3-trimethyl-2-oxabicyclo [2.2.2]octane]
CYP3A [1]; 12.5 µM
  CYP3A catalytic activity: 0.40 ± 0.01 nmol/mg/min
CYP3A [1]; 25 µM
  CYP3A catalytic activity: 0.41 ± 0.01 nmol/mg/min
CYP3A [1]; 50 µM
  inhibition of CYP3A catalytic activity: no major inhibition
CYP3A [1]; possum (Trichosurus vulpecula), liver microsomes, pH 7.4, probe erythromycin, 12.5 µM, read-out: CYP3A catalytic activity, % of Control
  activity at 30 min, 12.5 µM: 99.5 ± 2.67%
CYP3A [1]; possum (Trichosurus vulpecula), liver microsomes, pH 7.4, probe erythromycin, 25 µM, read-out: CYP3A catalytic activity, % of Control
  activity at 30 min, 25 µM: 101.9 ± 0.29%
mice
  toxic dose following ingestion: 50 mg/kg
rats
  toxic dose following ingestion: 2500 mg/kg
dogs
  toxic dose following ingestion: 1500 mg/kg
UGT [2]; 12.5 µM
  p-nitrophenol glucuronidation activity: 2.46 ± 0.12 µmol/mg/min
  p-nitrophenol glucuronidation, % of Control: 90.25 ± 6.49%
UGT [2]; 25 µM
  p-nitrophenol glucuronidation activity: 2.67 ± 0.21 µmol/mg/min
  p-nitrophenol glucuronidation, % of Control: 98.18 ± 9.75%
UGT [2]; 50 µM
  inhibition of p-nitrophenol glucuronidation: failed to significantly inhibit
humans
  toxic dose following ingestion: < 1000 mg/kg
possums
  toxic dose following ingestion: 3600 mg/kg
UGT [3]; 12.5 µM
  p-nitrophenol glucuronidation activity: 2.00 ± 0.16 µmol/mg/min
  p-nitrophenol glucuronidation, % of Control: 100.36 ± 1.99%
UGT [3]; 25 µM
  p-nitrophenol glucuronidation activity: 1.90 ± 0.16 µmol/mg/min
  p-nitrophenol glucuronidation, % of Control: 94.21 ± 1.51%
UGT [3]; 50 µM
  inhibition of p-nitrophenol glucuronidation: failed to significantly inhibit
[4]
  share of total intrinsic clearance, 3-hydroxycineole: 14%
  share of total intrinsic clearance, 7-hydroxycineole: 11%
  share of total intrinsic clearance, conversion to 9-hydroxycineole: 75%
CYP3A [5]; 12.5 µM
  CYP3A catalytic activity: 0.64 ± 0.05 nmol/mg/min
CYP3A [5]; 25 µM
  CYP3A catalytic activity: 0.65 ± 0.05 nmol/mg/min
CYP3A [5]; 50 µM
  inhibition of CYP3A catalytic activity: no major inhibition
CYP3A [5]; [10]
  activity at 30 min, 12.5 µM: 101 ± 2.31%
CYP3A [5]; [11]
  activity at 30 min, 25 µM: 101 ± 1.62%
CYP3A [6]; 12.5 µM
  CYP3A catalytic activity: 0.68 ± 0.02 nmol/mg/min
CYP3A [6]; 25 µM
  CYP3A catalytic activity: 0.64 ± 0.02 nmol/mg/min
CYP3A [6]; [10]
  activity at 30 min, 12.5 µM: 101 ± 2.93%
CYP3A [6]; [11]
  activity at 30 min, 25 µM: 94.5 ± 2.69%
CYP3A [6]; liver microsomes, pH 7.4, probe erythromycin, 50 µM, read-out: CYP3A catalytic activity, % of control
  activity at 30 min, 50 µM: 89.3%
UGT [7]; 12.5 µM
  p-nitrophenol glucuronidation activity: 4.09 ± 0.18 µmol/mg/min
  p-nitrophenol glucuronidation, % of Control: 99.39 ± 1.71%
UGT [7]; 25 µM
  p-nitrophenol glucuronidation activity: 4.18 ± 0.13 µmol/mg/min
  p-nitrophenol glucuronidation, % of Control: 101.80 ± 1.12%
UGT [7]; 50 µM
  inhibition of p-nitrophenol glucuronidation: failed to significantly inhibit

## CC(=O)N1CCN(c2ccc(OCC3COC(Cn4ccnc4)(c4ccc(Cl)cc4Cl)O3)cc2)CC1 (centres unmarked) [Ketoconazole, ketoconazole]
CYP3A [8]; cineole concentration 10 µM
  reduction of the formation of 9-hydroxycineole: 15%
CYP3A [8]; cineole concentration 100 µM
  reduction of the formation of 9-hydroxycineole: 30%
CYP3A [9]
  reduction of the metabolite formation: 85%
